# Assay results as given in US20130281465A1, “PYRAZOLE DERIVATIVE” (TAISHO PHARMACEUTICAL CO., LTD., priority 2010, published 2013).
# pIC50: −log10 of the molar value.
# Assays:
# [1] = biological target: T1, human orexin type 1 receptor (hOX1R) (Homo sapiens, UniProt O43613); assay: Orexin receptor antagonistic activity, intracellular Ca2+ fluorescence (FDSS) in CHO cells expressing hOX1R; format: cell-based; conditions: CHO cells forced to express hOX1R; orexin-A analogue peptide ligand 300 pM; Fluo-4 maximum fluorescence; read-out: IC50 value OX1R
# T1 construct: expressed in transfected cells; host or cells: Chinese hamster ovary (CHO) cells
# T1 sequence (O43613 1-425): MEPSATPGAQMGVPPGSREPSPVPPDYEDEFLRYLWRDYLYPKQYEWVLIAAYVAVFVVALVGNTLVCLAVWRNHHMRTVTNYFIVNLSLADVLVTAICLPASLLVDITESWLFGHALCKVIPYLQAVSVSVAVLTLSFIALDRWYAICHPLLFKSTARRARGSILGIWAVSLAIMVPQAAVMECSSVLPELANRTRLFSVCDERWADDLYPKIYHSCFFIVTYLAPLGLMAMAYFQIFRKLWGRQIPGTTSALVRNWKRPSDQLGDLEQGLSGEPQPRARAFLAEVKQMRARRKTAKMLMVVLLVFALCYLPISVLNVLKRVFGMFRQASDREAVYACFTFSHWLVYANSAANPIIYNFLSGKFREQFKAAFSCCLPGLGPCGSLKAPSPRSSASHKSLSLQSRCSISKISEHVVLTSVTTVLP
# Protocol: (§1) The antagonistic activity of each test compound against human orexin type 1 receptor (hOX1R) and orexin type 2 receptor (hOX2R) was performed as described in the literature with a modification (Toshikatsu Okumura et al., Biochemical and Biophysical Research Communications 280, 976-981, 2001). Chinese hamster ovary (CHO) cells forced to express hOX1R or hOX2R were seeded at 20,000 cells/well on a 96 well Black clear bottom plates (Nunc) and cultured for 16 hours under conditions of 37° C. and 5% CO2 using a Ham's F-12 medium containing 0.1 mM MEM non-essential amino acids, 0.5 mg/ml G418, and 10% fetal bovine serum (all from Invitrogen Corp.). After removal of the medium, 100 μL of the assay buffer (25 mM HEPES (Dojindo Laboratories), Hanks' balanced salt solution (Invitrogen Corp.), 0.1% bovine serum albumin, 2.5 mM probenecid, 200 μg/ml Amaranth (all from Sigma-Aldrich Corp.), pH 7.4) containing 0.5 μM Fluo-4AM ester (Dojindo Laboratories) was added thereto, and the cells were incubated for 60 minutes under conditions of 37° C. and 5% CO2. After removal of the buffer solution for assay containing Fluo-4AM ester, the test compound was dissolved at a concentration of 10 mM in dimethyl sulfoxide and diluted with the assay buffer, and 150 μL of the diluted solution was then added to each wells, which were then incubated for 30 minutes.
# (§2) A peptide (Pyr-[…]11e-Leu-Thr-Leu-NH2; Peptide Institute, Inc.) substituted 2 amino acids of human orexin-A was diluted with the assay buffer to 300 pM (final concentration for hOX1R) or 3 nM (final concentration for hOX2R). 50 μL of this ligand solution was added thereto to start reaction. During the reaction, the fluorescence value of each well was measured every one second for 3 minutes using Functional Drug Screening System (FDSS; manufactured by Hamamatsu Photonics K.K.), and antagonistic activity was determined with the maximum fluorescence value as an index for intracellular Ca^2+ concentration. The antagonistic activity of the test compound was calculated with the fluorescence value of a well supplemented with only a dilution buffer solution as 100% and the fluorescence value of a well supplemented with a buffer solution containing neither the ligand nor the compound as 0%, and determined in terms of 50% inhibitory concentration (IC50 value) from fluorescence values derived from the test compound added at varying concentrations.
# [2] = biological target: T2, orexin type 2 receptor (hOX2R) (Homo sapiens, UniProt O43614); assay: Orexin receptor antagonistic activity, intracellular Ca2+ fluorescence (FDSS) in CHO cells expressing hOX2R; format: cell-based; conditions: CHO cells forced to express hOX2R; orexin-A analogue peptide ligand 3 nM; Fluo-4 maximum fluorescence; read-out: IC50 value OX2R
# T2 construct: expressed in transfected cells; host or cells: Chinese hamster ovary (CHO) cells
# T2 sequence (O43614 1-444): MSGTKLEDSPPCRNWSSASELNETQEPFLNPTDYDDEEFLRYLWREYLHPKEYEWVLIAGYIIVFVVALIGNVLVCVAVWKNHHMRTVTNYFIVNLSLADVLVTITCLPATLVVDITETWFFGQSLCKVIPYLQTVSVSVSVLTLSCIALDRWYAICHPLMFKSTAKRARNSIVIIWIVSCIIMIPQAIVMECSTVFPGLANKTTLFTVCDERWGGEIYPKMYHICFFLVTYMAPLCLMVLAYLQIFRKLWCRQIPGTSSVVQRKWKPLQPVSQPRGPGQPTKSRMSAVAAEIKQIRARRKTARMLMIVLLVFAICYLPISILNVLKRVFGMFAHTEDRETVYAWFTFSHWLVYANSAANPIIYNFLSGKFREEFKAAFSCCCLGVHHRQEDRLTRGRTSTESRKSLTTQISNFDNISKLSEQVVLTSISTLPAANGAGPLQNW
# Protocol: as §1, §2
pIC50 [1],pIC50 [2],SMILES
7.75,7.33,"Cc1ccc(-n2nccn2)c(C(=O)N(C)CCn2cc(-c3ccc(F)cn3)cn2)c1 [Example 2, N-{2-[4-(5-fluoropyridin-2-yl)-1H-pyrazol-1-yl]ethyl}-N,5-dimethyl-2-(2H-1,2,3-triazol-2-yl)benzamide]"
8.25,7.64,"Cc1ccc(-n2nccn2)c(C(=O)N(C)CCn2ccc(-c3ccc(F)cn3)n2)c1 [Example 17, N-{2-[3-(5-fluoropyridin-2-yl)-1H-pyrazol-1-yl]ethyl}-N,5-dimethyl-2-(2H-1,2,3-triazol-2-yl)benzamide]"
8.82,8.41,"CCN(CCn1ccc(-c2ccc(F)cn2)n1)C(=O)c1cc(C)ccc1-n1nccn1 [Example 19, N-ethyl-N-{2-[3-(5-fluoropyridin-2-yl)-1H-pyrazol-1-yl]ethyl}-5-methyl-2-(2H-1,2,3-triazol-2-yl)benzamide]"
8.26,7.99,"CCN(CCn1ccc(-c2ccc(F)cn2)n1)C(=O)c1cccc(F)c1-n1nccn1 [Example 48, N-ethyl-3-fluoro-N-{2-[3-(5-fluoropyridin-2-yl)-1H-pyrazol-1-yl]ethyl}-2-(2H-1,2,3-triazol-2-yl)benzamide]"
7.60,7.57,"Cc1ccc(-n2nccn2)c(C(=O)N(CCn2ccc(-c3ccc(F)cn3)n2)C2COC2)c1 [Example 31, N-{2-[3-(5-fluoropyridin-2-yl)-1H-pyrazol-1-yl]ethyl}-5-methyl-N-(oxetan-3-yl)-2-(2H-1,2,3-triazol-2-yl)benzamide]"
8.74,7.64,"CCN(CCn1cc(-c2cccc(C)n2)cn1)C(=O)c1cc(C)ccc1-n1nccn1 [Example 12, N-ethyl-N-{2-[4-(6-methylpyridin-2-yl)-1H-pyrazol-1-yl]ethyl}-5-methyl-2-(2H-1,2,3-triazol-2-yl)benzamide]"
6.99,7.41,"Cc1ccc(-n2nccn2)c(C(=O)N(CCn2cc(-c3ccc(F)cn3)cn2)CC2CC2)c1 [Example 5, N-(cyclopropylmethyl)-N-{2-[4-(5-fluoropyridin-2-yl)-1H-pyrazol-1-yl]ethyl}-5-methyl-2-(2H-1,2,3-triazol-2-yl)benzamide]"
8.72,8.25,"CCN(CCn1ccc(-c2ccc(F)c(F)c2)n1)C(=O)c1ccccc1-c1ncccn1 [Example 59, N-{2-[3-(3,4-difluorophenyl)-1H-pyrazol-1-yl]ethyl}-N-ethyl-2-(pyrimidin-2-yl)benzamide]"
8.74,8.46,"CCN(CCn1ccc(-c2ccc(F)cn2)n1)C(=O)c1cc(Cl)ccc1-c1ncccn1 [Example 43, N-ethyl-5-chloro-N-{2-[3-(5-fluoropyridin-2-yl)-1H-pyrazol-1-yl]ethyl}-2-(pyrimidin-2-yl)benzamide]"
9.05,8.06,"Cc1ccc(-n2nccn2)c(C(=O)N(C)CCn2ccc(-c3ccc(F)cc3)n2)c1 [Example 20-2, N-{2-[3-(4-fluorophenyl)-1H-pyrazol-1-yl]ethyl}-N,5-dimethyl-2-(2H-1,2,3-triazol-2-yl)benzamide]"
7.53,7.05,"CCN(CCn1cc(-c2ccc(F)cn2)cn1)C(=O)c1cc(C)ccc1-c1ncccn1 [Example 15, N-ethyl-N-{2-[4-(5-fluoropyridin-2-yl)-1H-pyrazol-1-yl]ethyl}-5-methyl-2-(pyrimidin-2-yl)benzamide]"
7.66,6.90,"CCN(CCn1ccc(-c2cc(C(F)(F)F)ccn2)n1)C(=O)c1cc(C)ccc1-n1nccn1 [Example 60, N-ethyl-5-methyl-2-(2H-1,2,3-triazol-2-yl)-N-(2-{3-[4-(trifluoromethyl)pyridin-2-yl]-1H-pyrazol-1-yl}ethyl)benzamide]"
8.22,7.84,"CCN(CCn1cc(-c2ccc(F)cn2)cn1)C(=O)c1cc(C)ccc1-n1nccn1 [Example 4, N-ethyl-N-{2-[4-(5-fluoropyridin-2-yl)-1H-pyrazol-1-yl]ethyl}-5-methyl-2-(2H-1,2,3-triazol-2-yl)benzamide]"
8.15,7.31,"CCN(CCn1ccc(-c2ccc(F)cn2)n1)C(=O)c1ccc(F)cc1-c1ncccn1 [Example 49, N-ethyl-4-fluoro-N-{2-[3-(5-fluoropyridin-2-yl)-1H-pyrazol-1-yl]ethyl}-2-(pyrimidin-2-yl)benzamide]"
7.84,7.28,"CCN(CCn1cc(-c2ccc(Cl)cn2)cn1)C(=O)c1cc(C)ccc1-n1nccn1 [Example 10, N-{2-[4-(5-chloropyridin-2-yl)-1H-pyrazol-1-yl]ethyl}-N-ethyl-5-methyl-2-(2H-1,2,3-triazol-2-yl)benzamide]"
7.42,7.02,"CCN(CCn1cc(-c2ccc(F)cn2)cn1)C(=O)c1cc(F)ccc1-n1nccn1 [Example 56, N-ethyl-5-fluoro-N-{2-[4-(5-fluoropyridin-2-yl)-1H-pyrazol-1-yl]ethyl}-2-(2H-1,2,3-triazol-2-yl)benzamide]"
7.30,8.59,"Cc1ccc(-n2nccn2)c(C(=O)N(CCn2cc(-c3ccc(F)cc3)cn2)CC2CC2)c1 [Example 6, N-(cyclopropylmethyl)-N-{2-[4-(4-fluorophenyl)-1H-pyrazol-1-yl]ethyl}-5-methyl-2-(2H-1,2,3-triazol-2-yl)benzamide]"
8.96,8.89,"CCN(CCn1ccc(-c2cccc(C(F)(F)F)n2)n1)C(=O)c1cc(C)ccc1-n1nccn1 [Example 52, N-ethyl-5-methyl-2-(2H-1,2,3-triaz ° 1-2-yl)-N-(2-{3-[6-(trifluoromethyl)pyridin-2-yl]-1H-pyrazol-1-yl}ethyl)benzamide]"
8.08,8.05,"CCN(CCn1ccc(-c2ccc(F)cn2)n1)C(=O)c1ccccc1-c1ncccn1 [Example 34, N-ethyl-N-{2-[3-(5-fluoropyridin-2-yl)-1H-pyrazol-1-yl]ethyl}-2-(pyrimidin-2-yl)benzamide]"
8.70,7.72,"CCN(CCn1ccc(-c2ccc(F)cc2)n1)C(=O)c1cc(F)ccc1-c1ncccn1 [Example 54, N-ethyl-5-fluoro-N-{2-[3-(4-fluorophenyl)-1H-pyrazol-1-yl]ethyl}-2-(pyrimidin-2-yl)benzamide]"
8.85,8.43,"CCN(CCn1ccc(-c2ccc(F)cn2)n1)C(=O)c1cc(C)ccc1-c1ncccn1 [Example 26, N-ethyl-N-{2-[3-(5-fluoropyridin-2-yl)-1H-pyrazol-1-yl]ethyl}-5-methyl-2-(pyrimidin-2-yl)benzamide]"
7.03,6.83,"CCN(CCn1ccc(-c2ccc(F)cn2)n1)C(=O)c1c(F)cccc1-c1ncccn1 [Example 46, N-ethyl-2-fluoro-N-{2-[3-(5-fluoropyridin-2-yl)-1H-pyrazol-1-yl]ethyl}-6-(pyrimidin-2-yl)benzamide]"
8.92,8.40,"Cc1ccc(-n2nccn2)c(C(=O)N(CCn2ccc(-c3ccc(F)cc3)n2)CC2CC2)c1 [Example 28, N-(cyclopropylmethyl)-N-{2-[3-(4-fluorophenyl)-1H-pyrazol-1-yl]ethyl}-5-methyl-2-(2H-1,2,3-triazol-2-yl)benzamide]"
